In patent publication US10556900B2, “TrkA kinase inhibitors, compositions and methods thereof” (Merck Sharp & Dohme Corp., priority 2015, dated 2020) one finds IC50 data, which are given here for seven compounds.

The experiment deals with human TrkA receptor (Homo sapiens (Human), UniProt P04629). Put plainly: TrkA functional activity, DiscoverX PathHunter assay (NGF-stimulated U2OS cells). It counts as cell-based. Conditions: U2OS cells expressing human TrkA-Prolink, Shc1-EA and p75NTR; compound 1 h, then NGF (~80% of maximal response) 3 h; luminescence. The method in brief: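 U2OS cells co-expressing human TrkA-PK fusion, Shc1-EA and p75NTR were pre-incubated 1 h with compound, then stimulated 3 h at ambient temperature with NGF at ~EC80. Shc1 recruitment to phosphorylated TrkA read as β-galactosidase complementation by chemiluminescence after 1 h detection.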
Sequence of human TrkA receptor (P04629 33-796): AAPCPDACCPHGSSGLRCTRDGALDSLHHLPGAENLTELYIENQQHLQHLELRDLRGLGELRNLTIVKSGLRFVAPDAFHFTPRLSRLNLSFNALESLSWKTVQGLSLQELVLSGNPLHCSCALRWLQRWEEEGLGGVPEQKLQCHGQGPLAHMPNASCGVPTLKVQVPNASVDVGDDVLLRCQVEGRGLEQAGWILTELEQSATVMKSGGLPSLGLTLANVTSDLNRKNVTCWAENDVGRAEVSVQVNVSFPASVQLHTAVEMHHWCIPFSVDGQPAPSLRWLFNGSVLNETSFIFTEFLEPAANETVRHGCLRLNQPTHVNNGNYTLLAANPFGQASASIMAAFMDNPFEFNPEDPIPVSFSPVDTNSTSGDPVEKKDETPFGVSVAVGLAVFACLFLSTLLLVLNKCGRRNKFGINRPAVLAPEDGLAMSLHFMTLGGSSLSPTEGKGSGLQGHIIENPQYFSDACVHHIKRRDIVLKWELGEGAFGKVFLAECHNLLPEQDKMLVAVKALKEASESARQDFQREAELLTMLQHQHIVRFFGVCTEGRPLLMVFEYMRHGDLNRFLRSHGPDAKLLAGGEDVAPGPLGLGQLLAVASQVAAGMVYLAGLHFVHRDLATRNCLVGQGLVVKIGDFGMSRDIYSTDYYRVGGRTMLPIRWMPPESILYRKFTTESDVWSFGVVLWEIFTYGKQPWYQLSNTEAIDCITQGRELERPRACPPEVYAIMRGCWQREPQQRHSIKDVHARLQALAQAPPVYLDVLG
Usually IC50 stands for the midpoint of a concentration-inhibition curve. Higher therefore signals a need for much substance. `Cn1ccc(-c2cc(C(=O)Nc3cn4c(CO)ncc4cc3-c3ccccc3)c(F)cc2C(F)(F)F)n1` [Compound 65, 2-Fluoro-N-(3-(hydroxymethyl)-7-phenylimidazo[1,5-a]pyridin-6-yl)-5-(1-methyl-1H-pyrazol-3-yl)-4-(trifluoromethyl)benzamide] displayed an IC50 of 4.4 nM. With `CCOC(=O)c1cnc2c(NC(=O)c3cc(-c4ccn(C)n4)c(C(F)(F)F)s3)c(-c3ccccc3)ccn12` [Compound 66, Ethyl 8-(4-(1-methyl-1H-pyrazol-3-yl)-5-(trifluoromethyl)thiophene-2-carboxamido)-7-phenylimidazo[1,2-a]pyridine-3-carboxylate] the figure was 204 nM; with `Cn1ccc(-c2cc(C(=O)Nc3c(-c4ccccc4)ccn4c(C(N)=O)cnc34)sc2C(F)(F)F)n1` [Compound 67, 8-(4-(1-Methyl-1H-pyrazol-3-yl)-5-(trifluoromethyl)thiophene-2-carboxamido)-7-phenylimidazo[1,2-a]pyridine-3-carboxamide], 56 nM. The result for `Cn1ccc(-c2cc(C(=O)Nc3c(-c4ccccc4)ccn4c(CO)cnc34)sc2C(F)(F)F)n1` [Compound 68, N-(3-(Hydroxymethyl)-7-phenylimidazo[1,2-a]pyridin-8-yl)-4-(1-methyl-1H-pyrazol-3-yl)-5-(trifluoromethyl)thiophene-2-carboxamide] reads 48 nM; that for `O=C(Nc1c(-c2ccccc2)ncn2c(CO)cnc12)c1cc(-c2ncccn2)c(C(F)(F)F)cc1F` [Compound 69, 2-Fluoro-N-(3-(hydroxymethyl)-7-phenylimidazo[1,2-c]pyrimidin-8-yl)-5-(pyrimidin-2-yl)-4-(trifluoromethyl)benzamide], 6.5 nM; that for `Cn1ccc(-c2cc(C(=O)Nc3c(-c4ccccc4)ncn4c(CO)cnc34)c(F)cc2C(F)(F)F)n1` [Compound 70, 2-Fluoro-N-(3-(hydroxymethyl)-7-phenylimidazo[1,2-c]pyrimidin-8-yl)-5-(1-methyl-1H-pyrazol-3-yl)-4-(trifluoromethyl)benzamide], 1.2 nM. With `CC(C)(O)c1cnc2c(NC(=O)c3cc(-c4ncccn4)c(C(F)(F)F)cc3F)c(-c3ccccc3)ncn12` [Compound 73, 2-Fluoro-N-(3-(2-hydroxypropan-2-yl)-7-phenylimidazo[1,2-c]pyrimidin-8-yl)-5-(pyrimidin-2-yl)-4-(trifluoromethyl)benzamide] the figure was 4.8 nM.
